Patent US5981541A, “Substituted heterocycles as anti-tumor agents” (Rutgers, The State University of New Jersey, priority 1997, dated 1999)
Where two headings read alike, the source gives them in different places. Blank lines part the entries; values can stand above or below the molecule they belong to.

Legend:
human topoisomerase I = target: T1, human topoisomerase I (Homo sapiens, UniProt P11387); assay: Topo I-mediated DNA cleavage assay; type: biochemical
T1 construct: 15 amino acid fusion from pET-11a vector (N); made in house; host or cells: E. coli BL21(DE3)
T1 sequence (P11387 1-765): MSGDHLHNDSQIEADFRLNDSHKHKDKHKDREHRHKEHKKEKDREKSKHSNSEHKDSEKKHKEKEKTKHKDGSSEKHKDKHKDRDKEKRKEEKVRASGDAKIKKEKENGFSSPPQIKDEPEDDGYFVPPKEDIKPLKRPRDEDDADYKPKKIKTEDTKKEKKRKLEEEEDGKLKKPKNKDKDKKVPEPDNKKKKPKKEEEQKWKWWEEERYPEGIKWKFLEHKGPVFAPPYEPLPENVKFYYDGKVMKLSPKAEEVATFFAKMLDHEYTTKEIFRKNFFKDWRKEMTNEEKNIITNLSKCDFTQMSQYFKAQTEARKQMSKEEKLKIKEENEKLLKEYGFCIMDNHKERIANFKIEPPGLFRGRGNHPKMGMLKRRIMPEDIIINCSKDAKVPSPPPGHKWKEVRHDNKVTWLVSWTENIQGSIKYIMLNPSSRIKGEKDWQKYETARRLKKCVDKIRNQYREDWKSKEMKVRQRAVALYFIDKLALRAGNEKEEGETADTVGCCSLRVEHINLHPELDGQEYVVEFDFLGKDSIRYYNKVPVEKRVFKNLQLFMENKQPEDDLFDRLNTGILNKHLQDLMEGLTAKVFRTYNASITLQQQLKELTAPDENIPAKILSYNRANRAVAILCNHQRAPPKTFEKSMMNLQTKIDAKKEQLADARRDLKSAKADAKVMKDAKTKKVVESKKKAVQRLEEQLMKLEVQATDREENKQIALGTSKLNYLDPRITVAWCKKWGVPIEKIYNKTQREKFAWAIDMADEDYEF
Text: To obtain large quantity of human topoisomerase I, the human topoisomerase I cDNA was cloned into the pET-11a vector, in which transcription of the cDNA is under the control of the inducible T7 promoter (Studier et al., Methods in Enzymol., Vol. 185:60-89, San Diego: Academic Press (1990)). Briefly, a 3.4 kb DNA fragment containing the entire coding sequence of human topoisomerase I and approximately 1 kb of untranslated region downstream of the stop codon was isolated from the plasmid YCpGAL1-hTOP1 (Bjornsti et al., Cancer Res. 49:6318-6323 (1989)) by cutting at the BamHI and EcoRI sites. The vector pET-11a was cut with the same restriction enzymes, dephosphorylated and ligated to the insert in the proper reading frame downstream of the vector cloning site. […] Since the translational start in pET is positioned at an upstream NdeI site, the expressed topoisomerase I has a 15 amino acid fusion at its N-terminus. pET1B was then transformed into E. coli BL21 (DE3), and, upon induction with 0.4 mM IPTG for 1 hour, the bacterial lysate was analyzed by 10% SDS-PAGE. […] Briefly, E. coli cells were lysed by repeated sonic bursts. The sonic extract was made in 1 M NaCl and 6% polyethylene glycol (PEG) to remove nucleic acids. The PEG supernatant was chromatographed directly on a hydroxyapatite column. […] The eluted enzyme was dialyzed against 50% glycerol, 30 mM potassium phosphate (pH 7.0), 1 mM dithiothreitol (DTT) and 0.1 mM EDTA and stored at -20° C.
(§1) Cleavage assays for the recombinant topoisomerases I and calf thymus topoisomerases I and II were done as described (Liu et al., J. Biol. Chem. 258:15365-15370 (1983)). The plasmid YEpG DNA used for the cleavage assays was prepared and labeled at its 3'-end using the published procedures.

[1] = system: Human lymphoblast RPMI 8402 cells; assay: MTT-microtiter plate tetrazolinium cytotoxicity assay (MTA), RPMI 8402; type: cell-based
Protocol: (§2) The IC50 of the drugs tested were determined by the MTT-microtiter plate tetrazolinium cytotoxicity assay (MTA) (Mosmann, T., J. Immunol. Methods 65:55-63 (1983); Denizot et al., J. Immunol. Methods 89:271-277 (1986)). Human lymphoblast RPMI 8402 cells and their camptothecin-resistant CPT-K5 cells (Andoh et al., Proc. Natl. Acad. Sci., USA 84:5565-5569 (1987)) were kindly provided by Dr. Toshiwo Andoh (Aichi Cancer Center Research Institute, Nagoya, Japan). The cell lines A2780 and its camptothecin-resistant derivative CPT-2000 were a generous gift of Dr. Jaulang Hwang (Institute of Molecular Biology, Academia sinica, Taiwan). Cells (2000 cells/well, seeded in […] growth medium) were grown in suspension at 37° C. in 5% CO2 and maintained by regular passage in RPMI medium supplemented with 10% heat inactivated fetal bovine serum, L-glutamine (2 mM), penicillin (100 U/mi), and streptomycin (0.1 mg/ml). The cells were exposed continuously for 4 days to drug concentrations ranging from 100 ug/ml to 1.0 ng/ml in ten fold dilutions, and assayed at the end of the fourth day. Each concentration and the no drug control were repeated at least twice in 6 replica wells. The results were plotted and the IC50 then measured. The drug sensitive human epidermoid carcinoma KB 3-1 cell line and its vinblastine-selected multidrug-resistant variant KB-V1 cells (Akiyama et al., Genetics 11:117-126 (1985)) were kindly provided by Dr. Michael Gottesmann (National Cancer Institute). They were grown as monolayer cultures at 37° C. in 5% CO2 and maintained by regular passage in Dulbecco's minimal essential medium supplemented with 10% heat inactivated fetal bovine serum. KB-V1 cells were maintained in the presence of […] vinblastine.

[2] = system: camptothecin-resistant CPT-K5 cells; assay: MTT-microtiter plate tetrazolinium cytotoxicity assay (MTA), CPT-K5; type: cell-based, human
Protocol: as §2

[3] = target: T2, calf thymus topoisomerase II (Bos taurus, UniProt F1MDU7); assay: Topo II-mediated DNA cleavage assay; type: biochemical; conditions: concentration relative to VM26 (= 1) producing the same cleavage on plasmid DNA in the presence of calf thymus topoisomerase II
T2 construct: from tissue; host or cells: calf thymus glands
T2 sequence (F1MDU7 1-1532): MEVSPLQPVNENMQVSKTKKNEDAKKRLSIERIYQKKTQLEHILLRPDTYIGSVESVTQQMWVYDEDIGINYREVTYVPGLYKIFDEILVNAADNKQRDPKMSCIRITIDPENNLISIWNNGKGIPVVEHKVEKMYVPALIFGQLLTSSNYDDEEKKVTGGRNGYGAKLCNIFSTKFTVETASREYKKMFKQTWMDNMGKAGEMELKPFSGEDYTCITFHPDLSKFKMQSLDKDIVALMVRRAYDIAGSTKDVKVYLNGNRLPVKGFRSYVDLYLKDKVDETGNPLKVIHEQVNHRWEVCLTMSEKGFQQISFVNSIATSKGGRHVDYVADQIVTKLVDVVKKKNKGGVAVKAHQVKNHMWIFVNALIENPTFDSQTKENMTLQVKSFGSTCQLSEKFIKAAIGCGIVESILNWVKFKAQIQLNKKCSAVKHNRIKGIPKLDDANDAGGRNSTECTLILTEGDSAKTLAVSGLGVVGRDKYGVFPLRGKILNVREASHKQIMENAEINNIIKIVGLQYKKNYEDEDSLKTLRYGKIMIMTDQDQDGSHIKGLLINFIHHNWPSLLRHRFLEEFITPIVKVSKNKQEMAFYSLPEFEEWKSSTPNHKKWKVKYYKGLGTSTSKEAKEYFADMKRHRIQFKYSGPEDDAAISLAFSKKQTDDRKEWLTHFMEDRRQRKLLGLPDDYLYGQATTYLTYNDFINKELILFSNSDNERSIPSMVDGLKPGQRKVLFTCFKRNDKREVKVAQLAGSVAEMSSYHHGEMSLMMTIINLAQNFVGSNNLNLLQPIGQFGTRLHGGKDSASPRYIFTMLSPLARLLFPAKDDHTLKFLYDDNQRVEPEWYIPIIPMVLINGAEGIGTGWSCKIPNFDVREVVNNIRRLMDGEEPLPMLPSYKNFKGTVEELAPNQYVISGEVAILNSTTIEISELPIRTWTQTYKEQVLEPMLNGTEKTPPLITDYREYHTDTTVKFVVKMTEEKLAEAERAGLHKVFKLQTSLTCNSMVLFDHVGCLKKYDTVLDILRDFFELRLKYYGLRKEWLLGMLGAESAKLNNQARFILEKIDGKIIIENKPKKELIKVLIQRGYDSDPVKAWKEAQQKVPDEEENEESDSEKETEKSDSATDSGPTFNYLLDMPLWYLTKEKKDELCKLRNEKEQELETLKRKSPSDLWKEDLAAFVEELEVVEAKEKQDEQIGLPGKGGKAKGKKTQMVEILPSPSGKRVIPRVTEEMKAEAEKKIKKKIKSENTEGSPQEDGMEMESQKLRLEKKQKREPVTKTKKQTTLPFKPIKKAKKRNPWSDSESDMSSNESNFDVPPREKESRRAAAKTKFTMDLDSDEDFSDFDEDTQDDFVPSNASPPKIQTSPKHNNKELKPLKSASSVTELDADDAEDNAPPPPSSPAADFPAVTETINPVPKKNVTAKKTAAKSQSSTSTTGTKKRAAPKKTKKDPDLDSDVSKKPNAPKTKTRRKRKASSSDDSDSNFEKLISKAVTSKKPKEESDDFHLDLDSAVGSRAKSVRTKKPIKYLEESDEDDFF
Text: The plasmid pET11a and the E. coli strain BL21(DE3) used for enzyme expression were purchased from Novagen. IPTG was purchased from Sigma. The ECL system used for the Western blotting analysis of bacterial lysates was from Amersham (UK). All the restriction enzymes and Vent polymerase were from New England Biolabs. Mammalian topoisomerase II was isolated from calf thymus glands according to the published procedure (Halligan et al., J. Biol. Chem. 260:2475-2482 (1985)). The single copy yeast plasmids YCpGAL1 expressing various topoisomerase I genes in JN2-134 yeast strain were a kind gift of Dr. M-A. Bjornsti (Thomas Jefferson University, Philadelphia, Pa.). All bacterial and yeast media were from Difco (Detroit, Mich.), while cell culture media were purchased from Gibco-BRL (Gaithersburg, Md.).
as §1

[4] = concentration relative to camptothecin (CPT = 1) producing the same cleavage on plasmid DNA in the presence of human topoisomerase I
[5] = Homo sapiens, RPMI 8402, 96 h, read-out: Cytotoxicity IC50, RPMI
[6] = Homo sapiens, CPT-K5, 96 h, read-out: Cytotoxicity IC50, CPT-K5

Molecule: COc1cc2cc3c(nc2cc1OC)CCc1ccccc1-3 [Compound 13c, 9,10-Dimethoxy-5,6-dihydrobenz[a]acridine]
- Topo I-mediated DNA cleavage (REC, Relative Effective Concentration) (human topoisomerase I; [4]): 1000
- IC50 [1, 5]: 6.9 µM
- IC50 [2, 6]: 6.9 µM
- Topo II-mediated DNA cleavage (REC, Relative Effective Concentration) [3]: > 1000

Molecule: COc1cc2cc3c4cc(OC)c(OC)cc4cc[n+]3c(C)c2cc1OC [Coralyne, reference compound]
- Topo I-mediated DNA cleavage (REC, Relative Effective Concentration) (human topoisomerase I; [4]): 1
- IC50 [1, 5]: 4.9 µM
- IC50 [2, 6]: 20 µM
- Topo II-mediated DNA cleavage (REC, Relative Effective Concentration) [3]: > 1000

Molecule: COc1cc2ccc3c(cc4cc(OC)c(OC)cc4[n+]3C)c2cc1OC [Compound 16a, 2,3,9,10-Tetramethoxy-7-methylbenz[a]acridinium methosulfate]
- Topo I-mediated DNA cleavage (REC, Relative Effective Concentration) (human topoisomerase I; [4]): > 1000
- IC50 ([1]; Homo sapiens, 96 h, RPMI 8402 cells, 4 days of continuous drug exposure, read-out: Cytotoxicity IC50, RPMI): 25.3 µM
- IC50 ([2]; Homo sapiens, 96 h, camptothecin-resistant CPT-K5 cells, 4 days of continuous drug exposure, read-out: Cytotoxicity IC50, CPT-K5): 23.2 µM
- Topo II-mediated DNA cleavage (REC, Relative Effective Concentration) [3]: > 1000

Molecule: COc1cc2cc3c(nc2cc1OC)CCc1cc(Cl)ccc1-3 [Compound 13j, 3-Chloro-9,10-dimethoxy-5,6-dihydrobenz[a]acridine]
- Topo I-mediated DNA cleavage (REC, Relative Effective Concentration) (human topoisomerase I; [4]): 10
- IC50 [1, 5]: 9.2 µM
- IC50 [2, 6]: 15.4 µM
- Topo II-mediated DNA cleavage (REC, Relative Effective Concentration) [3]: > 1000

Molecule: COc1cc2c(cc1OC)-c1cc3ccccc3nc1CC2 [Compound 13d, 2,3-Dimethoxy-5,6-dihydrobenz[a]acridine]
- Topo I-mediated DNA cleavage (REC, Relative Effective Concentration) (human topoisomerase I; [4]): 100
- IC50 [1, 5]: 1 µM
- IC50 [2, 6]: 8.6 µM
- Topo II-mediated DNA cleavage (REC, Relative Effective Concentration) [3]: > 1000

Molecule: Oc1cc2c(cc1O)-c1cc3cc(O)c(O)cc3nc1CC2 [Compound 13g, 2,3,9,10-tetrahydroxy-5,6-dihydrobenz[a]acridine]
- Topo I-mediated DNA cleavage (REC, Relative Effective Concentration) (human topoisomerase I; [4]): 1.0
- IC50 [1, 5]: 20.3 µM
- IC50 [2, 6]: 13.6 µM
- Topo II-mediated DNA cleavage (REC, Relative Effective Concentration) [3]: > 1000

Molecule: COc1cc2c(cc1OC)-c1cc3cc4c(cc3nc1CC2)OCO4 [Compound 13b, 2,3,-Dimethoxy-9,10-methylenedioxy-5,6-dihydrobenz[a]acridine]
- Topo I-mediated DNA cleavage (REC, Relative Effective Concentration) (human topoisomerase I; [4]): 100
- IC50 [1, 5]: 9 µM
- IC50 [2, 6]: 14.9 µM
- Topo II-mediated DNA cleavage (REC, Relative Effective Concentration) [3]: > 1000

Molecule: COc1cc2c[n+](C)c3c4cc5c(cc4ccc3c2cc1OC)OCO5 [Nitidine, reference compound]
- Topo I-mediated DNA cleavage (REC, Relative Effective Concentration) (human topoisomerase I; [4]): 0.1
- IC50 [1, 5]: 0.4 µM
- IC50 [2, 6]: 3.9 µM
- Topo II-mediated DNA cleavage (REC, Relative Effective Concentration) [3]: 5

Molecule: Methylenedioxy-dihydro-demethyl-coralyne [MDD-Coralyne, reference compound]
- Topo I-mediated DNA cleavage (REC, Relative Effective Concentration) (human topoisomerase I; [4]): 0.1
- IC50 ([1]; rpmi 8402 cells, 96 h): 8.1 µM
- IC50 ([2]; cpt-k5 cells, 96 h): 27 µM

Molecule: COc1cc(C2c3cc4c(cc3C(OC3OC5COC(c6cccs6)OC5C(O)C3O)C3COC(=O)C23)OCO4)cc(OC)c1O (stereo not shown) [VM-26, reference compound]
- Topo I-mediated DNA cleavage (REC, Relative Effective Concentration) (human topoisomerase I): > 1000
- IC50 [1, 5]: 0.3 µM
- IC50 [2, 6]: 0.5 µM

More lines, main results first:

- Topo I-mediated DNA cleavage (REC, Relative Effective Concentration) (human topoisomerase I; [4]): 1000
- Topo II-mediated DNA cleavage (REC, Relative Effective Concentration) [3]: > 1000
Molecule: COc1cc2cc3c(ccc4cc(OC)c(OC)cc43)nc2cc1OC [Compound 14a, 2,3,9,10-Tetramethoxybenz[a]acridine]
- IC50 [1, 5]: 2.9 µM
- IC50 [2, 6]: 2.9 µM

- Topo I-mediated DNA cleavage (REC, Relative Effective Concentration) (human topoisomerase I; [4]): > 1000
- Topo II-mediated DNA cleavage (REC, Relative Effective Concentration) [3]: > 1000
Molecule: COc1cc2cc3c(ccc4ccccc43)nc2cc1OC [Compound 14c, 9,10-Dimethoxybenz[a]acridine]
- IC50 [1, 5]: 10.4 µM
- IC50 [2, 6]: 31.1 µM

- Topo I-mediated DNA cleavage (REC, Relative Effective Concentration) (human topoisomerase I; [4]): 1000
- Topo II-mediated DNA cleavage (REC, Relative Effective Concentration) [3]: > 1000
Molecule: COc1cc2cc3c(ccc4cc(Cl)ccc43)nc2cc1OC [Compound 14j, 3-Chloro-9,10-dimethoxybenz[a]acridine]
- IC50 [1, 5]: > 31 µM
- IC50 [2, 6]: > 31 µM

- Topo I-mediated DNA cleavage (REC, Relative Effective Concentration) (human topoisomerase I; [4]): 1000
- Topo II-mediated DNA cleavage (REC, Relative Effective Concentration) [3]: > 1000
Molecule: COc1cc2ccc3nc4cc5c(cc4cc3c2cc1OC)OCO5 [Compound 14b, 2,3,-Dimethoxy-9,10-methylenedioxybenz[a]acridine]
- IC50 [1, 5]: 4.5 µM
- IC50 [2, 6]: 7.5 µM

- Topo I-mediated DNA cleavage (REC, Relative Effective Concentration) (human topoisomerase I; [4]): 1000
- Topo II-mediated DNA cleavage (REC, Relative Effective Concentration) [3]: > 1000
Molecule: COc1cc2ccc3nc4ccccc4cc3c2cc1OC [Compound 14d, 2,3-Dimethoxy-benz[a]acridine]
- IC50 [1, 5]: 10.4 µM
- IC50 [2, 6]: 13.8 µM
